The values below come from patent US5658942A, “Octahydronaphthalene oxime compounds for cholesterol synthesis inhibition” (Sankyo Company, Limited, priority 1987, dated 1997).

In the first test the test system is serum cholesterol.
Assay: not given
The note with it: animals; J. Antibiotics 29, 1346 (1976); cited from earlier work.
For the molecule `CC1C=CC2=CCCC(O)C2C1CCC1CC(O)CC(=O)O1` (stereo not shown) [ML-236A], the “reduction of serum cholesterol levels” value is given as “significantly reduce”.

In the case of `CCC(C)C(=O)OC1CCC=C2C=CC(C)C(CCC3CC(O)CC(=O)O3)C21` (stereo not shown) [ML-236B], the “reduction of serum cholesterol levels” value is on record as “significantly reduce”.

The next test concerns the target T1, 3-hydroxy-3-methyl-glutaryl CoA reductase (Rattus norvegicus, UniProt P51639).
T1 construct: from tissue; host or cells: enzyme system separated from an experimental animal
T1 sequence (P51639 1-887): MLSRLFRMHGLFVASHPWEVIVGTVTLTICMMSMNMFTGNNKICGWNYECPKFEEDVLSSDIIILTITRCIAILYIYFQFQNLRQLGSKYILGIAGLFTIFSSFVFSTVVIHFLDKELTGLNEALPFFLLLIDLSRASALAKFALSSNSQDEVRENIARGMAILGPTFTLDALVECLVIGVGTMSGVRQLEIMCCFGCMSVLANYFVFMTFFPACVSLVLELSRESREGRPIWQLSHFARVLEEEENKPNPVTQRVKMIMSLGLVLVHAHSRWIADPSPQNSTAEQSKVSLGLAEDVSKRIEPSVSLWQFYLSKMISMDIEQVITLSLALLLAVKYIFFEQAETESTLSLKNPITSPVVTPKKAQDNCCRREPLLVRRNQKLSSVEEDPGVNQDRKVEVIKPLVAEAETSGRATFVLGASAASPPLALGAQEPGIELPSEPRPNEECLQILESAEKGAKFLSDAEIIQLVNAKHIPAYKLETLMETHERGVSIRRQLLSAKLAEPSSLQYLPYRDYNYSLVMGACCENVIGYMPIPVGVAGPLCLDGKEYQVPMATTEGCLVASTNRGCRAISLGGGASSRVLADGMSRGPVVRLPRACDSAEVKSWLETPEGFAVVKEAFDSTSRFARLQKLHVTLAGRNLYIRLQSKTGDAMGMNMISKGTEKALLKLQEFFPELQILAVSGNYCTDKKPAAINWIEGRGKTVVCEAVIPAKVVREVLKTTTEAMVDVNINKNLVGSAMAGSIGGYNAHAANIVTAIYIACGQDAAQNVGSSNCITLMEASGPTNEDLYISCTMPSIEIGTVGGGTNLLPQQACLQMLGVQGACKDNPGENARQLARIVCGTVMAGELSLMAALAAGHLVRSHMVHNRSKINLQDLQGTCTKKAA
Briefly: inhibition of 3-hydroxy-3-methyl-glutaryl CoA reductase (method of Kuroda et al.). Format: biochemical. The conditions noted are these: read-out: IC50 (concentration to achieve 50% inhibition of 3-hydroxy-3-methyl-glutaryl CoA reductase). The text has this:
The compounds of the present invention have a marked ability to reduce the levels of serum cholesterol. Specifically, the biosynthesis of chlolesterol in an enzyme system or a culture cell system separated from an experimental animal is inhibited through competition with the rate limiting enzyme of 3-hydroxy-3-methylglutaryl-CoA reductase. […] The determination of the inhibitory activity of the compounds was made using the method of Kuroda et al ["Biochimica et Biophysica Acta" Vol. 486, pp. 70-81(1977)] which is a modification of the known method of D. J. Shapiro et al ["Analytical Biochemistry" Vol. 31, pp. 383-390(1969)] with some improvements.
The results are shown in Table 2, in which IC50 is the concentration to achieve 50% inhibition of 3-hydroxy-3-methyl-glutaryl CoA reductase (nM).
As to `CCC(C)C(=O)OC1CCC(=NO)C2=CC(=O)C(C)C(CCC(O)CC(O)CC(=O)O)C21` (stereo not shown) [Compound A, Sodium 1-(2-methylbutyryl)-3,4-dihydro-6-oxo-4-hydroxyiminoiso-ML-236A carboxylate, reference compound], the IC50 was 0.0357 µM.

Take `CCC(C)C(=O)OC1CCC(=NOC)C2=CC(=O)C(C)C(CCC(O)CC(O)CC(=O)O)C21` (stereo not shown) [Compound B, Sodium 1-(2-methylbutyryl)-3,4-dihydro-6-oxo-4-methoxyiminoiso-ML-236A carboxylate, reference compound]: the IC50 worked out at 0.0395 µM.

In the case of `CCC(C)C(=O)OC1CCC(=NOCc2ccccc2)C2=CC(=O)C(C)C(CCC(O)CC(O)CC(=O)OCc3ccccc3)C21` (stereo not shown) [Example 1(c), Benzyl-(2-methylbutyryl)-3,4-dihydro-6-oxo-4-benzyl-oxyiminoiso-ML-236A carboxylate], the IC50 amounted to 0.0331 µM.

In the case of `CCC(C)C(=O)OC1CCC(=NOCc2ccc(F)cc2)C2=CC(=O)C(C)C(CCC(O)CC(O)CC(=O)O)C21` (stereo not shown) [Example 3b, Sodium 1-(2-methylbutyryl)-3,4-dihydro-6-oxo-4-(4-fluorobenzyl)oxyiminoiso-ML-236A Carboxylate], the IC50 is 0.0265 µM.

Regarding `CCC(C)C(=O)OC1CCC(=NOCc2ccc([N+](=O)[O-])cc2)C2=CC(=O)C(C)C(CCC(O)CC(O)CC(=O)O)C21` (stereo not shown) [Example 4b, Sodium 1-(2-methylbutyryl)-3,4-dihydro-6-oxo-4-(4-nitrobenzyl)oxyiminoiso-ML-236ACarboxylate], the IC50 came out at 0.021 µM.

For `CCC(C)C(=O)OC1CCC(=NOCc2ccccc2CO)C2=CC(=O)C(C)C(CCC(O)CC(O)CC(=O)O)C21` (stereo not shown) [Example 6b, Sodium 1-(2-methylbutyryl)-3,4-dihydro-6-oxo-4-(2-hydroxymethylbenzyl)oxyiminoiso-ML-236A Carboxylate], the IC50 was 0.0184 µM.

As for `CCC(C)C(=O)OC1CCC(=NOCc2cccnc2)C2=CC(=O)C(C)C(CCC(O)CC(O)CC(=O)O)C21` (stereo not shown) [Example 10b, Sodium 1-(2-methylbutyryl)-3,4-dihydro-6-oxo-4-(3-pyridylmethyl)oxyiminoiso-ML-236A Carboxylate], the IC50 worked out at 0.0314 µM.

Regarding `CCC(C)C(=O)OC1CCC(=NOCc2ccco2)C2=CC(=O)C(C)C(CCC(O)CC(O)CC(=O)O)C21` (stereo not shown) [Example 11b, Sodium 1-(2-methylbutyryl)-3,4-dihydro-6-oxo-4-furfuryl-oxyiminoiso-ML-236ACarboxylate], the IC50 is 0.036 µM.

Consider `CCC(C)C(=O)OC1CCC(=NOCC=C(C)C)C2=CC(=O)C(C)C(CCC(O)CC(O)CC(=O)O)C21` (stereo not shown) [Example 17b, Sodium 1-(2-methylbutyryl)-3,4-dihydro-6-oxo-4-(3-methyl-2-butenyl)oxyiminoiso-ML-236A Carboxylate], for which the IC50 was determined as 0.0213 µM.

The subject of a further test is 3-hydroxy-3-methylglutaryl-coenzyme A reductase.
Assay: not given
The conditions noted are these: enzymes or cultured cells from experimental animals; competing with HMG-CoA reductase; cited from earlier work.
In the case of `CC1C=CC2=CCCC(O)C2C1CCC1CC(O)CC(=O)O1` (stereo not shown) [ML-236A], the “inhibition of the biosynthesis of cholesterol” value is given as “inhibit the biosynthesis of cholesterol”.

As for `CCC(C)C(=O)OC1CCC=C2C=CC(C)C(CCC3CC(O)CC(=O)O3)C21` (stereo not shown) [ML-236B], the “inhibition of the biosynthesis of cholesterol” value is listed as “inhibit the biosynthesis of cholesterol”.
